Data published in patent publication US11787847B2, “Method of identifying malodor modulating compounds” (FIRMENICH SA, priority 2017, dated 2023).

Legend:
[1] = target: T1, human receptor OR2L13 (Homo sapiens, UniProt Q8N349); test: cell-based dose-response, Ca2+ increase (Calcium 5 dye, FLIPR), HEK293T line stably expressing FLAG-Rho tagged receptor with human Gα15; settings: FIG. 3, Example 3, SEQ ID NO: 26, stable HEK293T
T1 construct: The receptors were tagged with a FLAG®-Rho tag combination; expressed in transfected cells
T1 sequence (Q8N349 1-312): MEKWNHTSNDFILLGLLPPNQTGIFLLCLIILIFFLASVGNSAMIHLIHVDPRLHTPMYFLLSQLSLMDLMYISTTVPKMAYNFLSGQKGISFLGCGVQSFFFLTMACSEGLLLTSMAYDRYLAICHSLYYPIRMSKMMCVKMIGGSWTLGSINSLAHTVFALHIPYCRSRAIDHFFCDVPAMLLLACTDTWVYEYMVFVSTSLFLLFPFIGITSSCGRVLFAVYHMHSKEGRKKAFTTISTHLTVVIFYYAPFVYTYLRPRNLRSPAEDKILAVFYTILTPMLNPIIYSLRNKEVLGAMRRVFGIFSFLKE
Description: Functional dose-response experiments were performed to evaluate the level of DMTS activity of the modified cell lines expressing individual putative DMTS receptors. A cell line stably expressing a human receptor was generated in a HEK293T cell line for each of the following human receptors: OR2L13, OR4C15, OR5AC2, OR8H3, OR11G2 or OR52N2. The receptors were tagged with a FLAG®-Rho tag combination and stably co-expressed with the human G-protein alpha subunit Gals for the cell based assay. Co-expression of the human Gals activates the Gq transduction pathway that leads to an internal Ca^2+ increase upon binding to the appropriate ligand. Receptors were exposed to increasing concentrations of DMTS. Odorant-induced activity was detected by measuring the Ca^2+ increase in the cytosol using a calcium sensitive fluorescent dye (Molecular Devices, Calcium 5 dye, cat. R8186) and measuring the change in Relative Fluorescence Ratio (RFU) using a fluorometric imaging plate reader (Molecular Devices, FLIPR) following odorant exposure. […] A cell line lacking a receptor was used as a control for non-specific activity at high compound concentrations (‘No receptor’). The activity levels are reported by the potency of the DMTS induced-response for each receptor as a measure of the EC50 value.

[2] = target: T2, human receptor OR52N5 (Homo sapiens, UniProt Q8NH56); test: cell-based dose-response, cAMP increase by HTRF, HEK293T cells (endogenous RTP1 activated) co-transfected with human Golf, Rho-FLAG tagged receptor; settings: FIG. 2, Example 2, SEQ ID NO: 24
T2 construct: the human receptors were tagged with a Rho-FLAG® tag combination; expressed in transfected cells
T2 sequence (Q8NH56 1-324): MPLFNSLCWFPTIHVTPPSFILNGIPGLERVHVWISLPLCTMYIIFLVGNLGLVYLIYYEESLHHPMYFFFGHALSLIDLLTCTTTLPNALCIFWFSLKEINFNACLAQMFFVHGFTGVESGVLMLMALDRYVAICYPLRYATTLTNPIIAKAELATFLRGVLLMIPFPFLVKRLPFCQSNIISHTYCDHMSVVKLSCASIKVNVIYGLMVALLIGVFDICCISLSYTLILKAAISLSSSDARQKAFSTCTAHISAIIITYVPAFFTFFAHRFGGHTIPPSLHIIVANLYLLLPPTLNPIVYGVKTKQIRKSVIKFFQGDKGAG
Description: Functional dose-response experiments were performed to evaluate the level of DMTS activity of the modified cell line expressing individual putative DMTS receptors. Using a cell-based assay, mouse receptor Olfr1193, Olfr1093, Olfr1097, Olrf166, Olfr169, Olfr738 and Olfr742, and human receptor OR4S2 and OR52N5 were tested in an HEK293T cell line wherein the endogenous RTP1 gene has been activated and the odorant receptor chaperone protein was expressed (described in WO2016/201153). The mouse receptor genes were tagged with a Lucy-FLAG®-Rho tag combination and the human receptors were tagged with a Rho-FLAG® tag combination resulting in a tag:receptor fusion protein for the cell based assay. Receptor genes were co-transfected with the canonical olfactory human G-protein alpha subunit Golf gene and were exposed to increasing concentrations of the malodor odorant. Co-expression of the human Golf activates the Gs transduction pathway that leads to an internal cAMP increase upon binding to the appropriate ligand. Odorant-induced activity was detected by measuring the cAMP increase in the cytosol using an Homogeneous Time Resolved Fluorescence (HTRF) based kit (CisBio, cAMP dynamic 2 kit, cat. 62AM4PEJ). […]

[3] = target: T3, mouse receptor Olfr166 (Mus musculus, UniProt Q0VEL6); test: cell-based dose-response, cAMP increase by HTRF, HEK293T cells (endogenous RTP1 activated) co-transfected with human Golf, Lucy-FLAG-Rho tagged receptor
T3 construct: cAMP HTRF
T3 sequence (Q0VEL6 1-312): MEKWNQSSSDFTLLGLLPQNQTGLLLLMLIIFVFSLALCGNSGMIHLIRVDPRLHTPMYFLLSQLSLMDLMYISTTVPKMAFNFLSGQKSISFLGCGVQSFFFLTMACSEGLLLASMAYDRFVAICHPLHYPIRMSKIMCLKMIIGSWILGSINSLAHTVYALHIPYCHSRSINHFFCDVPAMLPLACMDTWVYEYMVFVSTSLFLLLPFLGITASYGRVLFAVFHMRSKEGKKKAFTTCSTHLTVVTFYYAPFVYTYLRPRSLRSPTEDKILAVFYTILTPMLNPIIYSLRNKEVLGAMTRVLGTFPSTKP
Description: (§1) Functional dose-response experiments were performed to evaluate the level of DMTS activity of the modified cell line expressing individual putative DMTS receptors. Using a cell-based assay, mouse receptor Olfr1193, Olfr1093, Olfr1097, Olrf166, Olfr169, Olfr738 and Olfr742, and human receptor OR4S2 and OR52N5 were tested in an HEK293T cell line wherein the endogenous RTP1 gene has been activated and the odorant receptor chaperone protein was expressed (described in WO2016/201153). The mouse receptor genes were tagged with a Lucy-FLAG®-Rho tag combination and the human receptors were tagged with a Rho-FLAG® tag combination resulting in a tag:receptor fusion protein for the cell based assay. Receptor genes were co-transfected with the canonical olfactory human G-protein alpha subunit Golf gene and were exposed to increasing concentrations of the malodor odorant. Co-expression of the human Golf activates the Gs transduction pathway that leads to an internal cAMP increase upon binding to the appropriate ligand. Odorant-induced activity was detected by measuring the cAMP increase in the cytosol using an Homogeneous Time Resolved Fluorescence (HTRF) based kit (CisBio, cAMP dynamic 2 kit, cat. 62AM4PEJ). […] The activity levels are reported by the potency of the DMTS induced-response for each receptor as a measure of the EC50 value (the effective concentration at which the receptor responds at its half-maximal activation efficacy level for a given compound).
(§2) Functional dose-response experiments were performed to confirm the DMTS activity on the DMTS receptors identified in Example 2 and to further characterize their response to DMDS. Using the same cell-based assay described in Example 2, mouse receptors Olfr1193, Olfr1093, Olfr1097, Olfr166, Olfr169, Olfr738, Olfr742 and of human odorant receptor OR4S2 were tested with increasing concentration of DMTS, DMDS or butyric acid (control). […] A weak response for OR4S2 and Olfr169 to butyric acid was visible but was too weak to consider butyric acid as a representative ligand for these receptors. The activity levels are reported by the potency of DMTS or DMDS induced-response for each receptor as a measure of the EC50 value, EC50DMTS and EC50DMDS respectively. […] Competitive antagonists at the malodor binding site of these receptors have the potential to reduce the unpleasant perception of both DMTS and DMDS.

[4] = target: T4, mouse receptor Olfr1097 (Mus musculus, UniProt Q8VGA2); test: as above
T4 construct: cAMP HTRF
T4 sequence (Q8VGA2 1-315): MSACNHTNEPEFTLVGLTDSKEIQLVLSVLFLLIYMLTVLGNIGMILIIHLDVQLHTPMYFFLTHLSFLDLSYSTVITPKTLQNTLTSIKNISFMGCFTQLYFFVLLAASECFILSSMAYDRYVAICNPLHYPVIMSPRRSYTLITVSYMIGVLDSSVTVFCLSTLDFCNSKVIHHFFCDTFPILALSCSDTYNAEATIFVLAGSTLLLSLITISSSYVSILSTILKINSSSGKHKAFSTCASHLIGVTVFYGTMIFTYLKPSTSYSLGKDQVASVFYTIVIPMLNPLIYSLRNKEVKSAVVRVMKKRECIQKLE
Description: as §1, §2

- EC50 [1]: 59 µM
- EC50 [2]: 10 µM
- EC50 ([3]; FIG. 2, Example 2, SEQ ID NO: 8): 5 µM
- EC50 ([3]; FIG. 5, Example 5, SEQ ID NO: 8): 11 µM
- EC50 ([4]; FIG. 2, Example 2, SEQ ID NO: 6): 17 µM
- EC50 ([4]; FIG. 5, Example 5, SEQ ID NO: 6): 18 µM
Structure (SMILES): CSSSC [DMTS, dimethyl trisulfide]
